Laboratory results from patent publication US9605027B2, “Polypeptides that bound to IL-23 receptor and inhibit binding of IL-23 and cell signaling thereof” (Medical Diagnostic Laboratories, LLC, priority 2011, dated 2017).
Peptide text beside a SMILES is read from it.

Tests used:
[1] = target: IL-23 induced IL-22 production in human PBMCs (Homo sapiens, UniProt Q5VWK5); test: IL-22 production induced by IL-23 in human PBMC; type: cell-based; settings: IL-23 2 ng/ml, ELISA; read-out: IC50, inhibition of IL-22 production
Method: Peripheral blood mononuclear cells (PBMCs) were isolated from heparinized venous whole blood from healthy donors by density gradient centrifugation using Ficoll-Paque (Sigma-Aldrich, St Louis, Mo., USA). Human venous blood was purchased as anonymous buffy coats from the New Jersey Blood Transfusion Service. After isolation, the PBMCs were cultured in RPMI-1640 medium (Invitrogen-Gibco, Carlsbad, Calif.) supplemented with 10% heat-inactivated fetal bovine serum (Invitrogen-Gibco) and 1 mM of glutamine (Invitrogen-Gibco) at 37° C.
Isolated PBMCs (5×10^6 cells/ml) were cultured in the presence of […] and IL-18 (20 ng/ml). A serial dilution of IL-23 (from 0-2 ng/ml) was added to the cell culture for 30 hours. We measured the production of IL-22 by ELISA (Catalog #88-7522, eBioscience, San Diego, Calif.) according to manufacturer's protocol).
In order to measure the IC50 value of cyclic peptide no. 2HT AA (SEQ ID NO: 177), the cells were treated with a fixed amount of IL-23 cytokine (2 ng/ml) in the presence of a serial dilution of cyclic peptide no. 2HT AA (SEQ ID NO: 177). The cyclic peptide (SEQ ID NO: 177) inhibits IL-23 cytokine in PBMCs in a dose-dependent manner. […] Thus, the cyclic peptide no.

mouse IL-23R = target: T1, mouse IL-23R (Mus musculus, UniProt Q8K4B4); test: Competitive mouse ELISA, mouse IL-23 binding to mouse IL-23R; settings: mouse IL-23 / mouse IL-23R-Fc; read-out: IC50, Competitive ELISA in mouse system
T1 sequence (Q8K4B4 24-644): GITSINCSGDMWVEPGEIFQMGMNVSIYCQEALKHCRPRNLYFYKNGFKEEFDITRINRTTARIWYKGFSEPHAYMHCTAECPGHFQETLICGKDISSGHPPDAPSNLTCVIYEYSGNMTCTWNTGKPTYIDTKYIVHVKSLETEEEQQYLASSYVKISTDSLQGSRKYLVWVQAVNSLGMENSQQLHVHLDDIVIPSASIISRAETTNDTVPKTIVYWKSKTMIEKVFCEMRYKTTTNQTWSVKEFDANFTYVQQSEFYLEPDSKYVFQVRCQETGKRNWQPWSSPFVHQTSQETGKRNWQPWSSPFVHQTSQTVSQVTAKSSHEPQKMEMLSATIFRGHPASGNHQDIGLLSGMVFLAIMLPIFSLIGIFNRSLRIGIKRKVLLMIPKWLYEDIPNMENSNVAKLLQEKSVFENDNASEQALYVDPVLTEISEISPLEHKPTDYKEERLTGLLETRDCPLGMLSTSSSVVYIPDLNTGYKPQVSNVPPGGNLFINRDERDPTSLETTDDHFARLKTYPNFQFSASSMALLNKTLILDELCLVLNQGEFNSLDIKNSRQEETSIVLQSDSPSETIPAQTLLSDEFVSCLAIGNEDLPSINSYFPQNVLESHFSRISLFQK
Excerpt: In this study, we tested if the cyclic polypeptide no. 23.15, cyclic polypeptide no. 23.19 and the isolated polypeptide 23.15-Fc fusion protein could inhibit binding of mouse IL-23 to mouse IL-23R. Mouse IL-23 (p19 Gene Accession #: NM_031252; p40 Gene Accession #: NM_008352), the sequence of which is incorporated herein by reference. Mouse IL-23R (Gene Accession #: NM_144548), the sequence of which is incorporated herein by reference. To do so, we performed the Competitive ELISA.
FIG. 46 is a schematic depiction of the Competitive ELISA in mouse. Recombinant mouse IL-23R-Fc (2 μg/ml) was coated onto microtiter plates as a capture reagent. Mouse IL-23 and polypeptide or isolated peptide-Fc fusion protein were added to compete for binding to the immobilized mouse IL-23R-Fc. Mouse IL-23 that bound to mouse IL-23R-Fc was detected using biotinylated anti-p40 antibody (1:250). The bound anti-p40 antibody was detected using streptavidin-horseradish peroxidase (HRP) (1:500) and 100 μl/well of a tetramethylbenzidine (TMB) substrate was added to measure peroxidase activity. The color was measured at optical density (OD) 450nm. The color intensity was directly proportional to the amount of the bound mouse IL-23 protein.
The isolated polypeptide no. 23.15-Fc fusion protein, cyclic polypeptide no. 23.19 and polypeptide no. […] The IC50 values were calculated.

Chain of IL-23 induced IL-22 production in human PBMCs (Q5VWK5 24-629 limits assumed): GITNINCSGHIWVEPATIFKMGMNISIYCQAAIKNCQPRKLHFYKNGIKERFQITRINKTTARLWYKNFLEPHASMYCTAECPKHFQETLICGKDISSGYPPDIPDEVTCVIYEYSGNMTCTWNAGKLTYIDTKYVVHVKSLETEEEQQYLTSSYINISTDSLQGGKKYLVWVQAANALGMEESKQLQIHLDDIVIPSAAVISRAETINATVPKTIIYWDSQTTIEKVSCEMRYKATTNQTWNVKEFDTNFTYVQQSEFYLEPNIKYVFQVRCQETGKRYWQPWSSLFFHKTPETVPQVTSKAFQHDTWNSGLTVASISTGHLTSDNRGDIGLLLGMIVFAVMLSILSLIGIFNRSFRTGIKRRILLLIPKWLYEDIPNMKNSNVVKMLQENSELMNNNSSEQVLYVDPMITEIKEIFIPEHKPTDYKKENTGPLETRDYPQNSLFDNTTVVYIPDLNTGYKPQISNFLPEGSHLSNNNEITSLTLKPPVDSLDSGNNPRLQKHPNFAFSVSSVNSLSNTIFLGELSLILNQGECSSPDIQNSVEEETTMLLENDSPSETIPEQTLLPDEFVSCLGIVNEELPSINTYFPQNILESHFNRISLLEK

IC50 [1] [µM] | IC50 (mouse IL-23R) [µM] | Compound
0.337 |  | CSCC[C@@H]1NC(=O)[C@H](CCCCN)NC(=O)[C@H](C)NC(=O)[C@H](C)NC(=O)[C@H](CS)NC(=O)[C@H](CC(N)=O)NC(=O)[C@H](CCCCN)NC(=O)[C@H](CC(C)C)NC(=O)[C@H](Cc2c[nH]c3ccccc23)NC(=O)[C@H](Cc2ccc(O)cc2)NC(=O)[C@H](CC(=O)O)NC(=O)[C@H](C(C)C)NC(=O)[C@H](Cc2c[nH]c3ccccc23)NC(=O)[C@H]([C@@H](C)O)NC1=O [2HT AA] (cyclo(AAKMTWVDYWLKNC))
 | 12.5 | CSCC[C@@H]1NC(=O)[C@H](C)NC(=O)[C@@H](N)CSSC[C@@H](C(=O)O)NC(=O)[C@H](CCCNC(=N)N)NC(=O)CNC(=O)[C@H](Cc2ccc(O)cc2)NC(=O)[C@H](CC(C)C)NC(=O)[C@H](Cc2c[nH]c3ccccc23)NC(=O)[C@H](Cc2ccc(O)cc2)NC(=O)[C@H](CC(=O)O)NC(=O)[C@H](CCC(N)=O)NC(=O)[C@H](Cc2c[nH]c3ccccc23)NC(=O)[C@H]([C@@H](C)O)NC1=O [23.19]
